In patent EP2322149A1, “Methods and compositions for the treatment of ischemia” (Universidad del Pais Vasco, priority 2009, dated 2011):
Entries after “also recorded” stand apart in the source; their conditions may differ. Where a name gives a salt, the structure may show the parent alone.

What was measured:
[1] = tested on: optic nerve oligodendrocytes; test: Mitochondrial membrane potential (JC-1) after OGD in oligodendrocyte cultures; type: cell-based, Sprague-Dawley rats; conditions: 1 h OGD; BBG 50 nM, PPADS 100 µM
Method: (§1) Primary cultures of oligodendrocytes derived from optic nerves of 12 day-old Sprague-Dawley rats were obtained as previously described (Matute et al., 1997 Proc Natl Acad Sci U S A 94:8830-8835.).Cells were maintained at 37°C and 5% CO2 in a chemically defined medium (Matute et al., 1997 Proc Natl Acad Sci U S A 94:8830-8835.). After 2-4 days in vitro, cultures were composed of at least 98% 04/Ga1C^+ cells. No microglial cells were detected in these cultures. […] Cell death was determined 24h later using calcein-AM (Invitrogen) as previously described (Matute et al., 1997 Proc Natl Acad Sci U S A 94:8830-8835.). Antagonists were present during in vitro ischaemia and during the next 24h incubation period. […] Calcein was used to quantify the number of cells within the reading field. Fluorescence was measured as above and values were plotted as the percentage of DCFDA/calcein red-orange fluorescence versus control. The changes in mitochondrial membrane potential were monitored with 5,5',6,6'-tetrachloro-1,1',3,3'-tetraethylbenzimidazolcarbocyanine iodide (JC-1; Molecular Probes). […] The changes in the membrane potential were calculated as the red (emission at 590)/green (emission at 520) ratio in each condition and results were normalized to control.

[2] = tested on: optic nerve oligodendrocytes; test: Oxygen and glucose deprivation (OGD) cell death in oligodendrocyte cultures (calcein-AM); type: cell-based, Sprague-Dawley rats; conditions: 1h OGD, calcein 24h later; PPADS 100 µM, BBG 50 nM, CNQX 30 µM, APV 100 µM, apyrase 20 U/ml, ARL67156 100 µM, CBX 20 µM, FFA 100 µM, MFQ 1 nM
Method: (§2) Primary cultures of oligodendrocytes derived from optic nerves of 12 day-old Sprague-Dawley rats were obtained as previously described (Matute et al., 1997 Proc Natl Acad Sci U S A 94:8830-8835.).Cells were maintained at 37°C and 5% CO2 in a chemically defined medium (Matute et al., 1997 Proc Natl Acad Sci U S A 94:8830-8835.). After 2-4 days in vitro, cultures were composed of at least 98% 04/Ga1C^+ cells. No microglial cells were detected in these cultures. […] Cell death was determined 24h later using calcein-AM (Invitrogen) as previously described (Matute et al., 1997 Proc Natl Acad Sci U S A 94:8830-8835.). Antagonists were present during in vitro ischaemia and during the next 24h incubation period. […] To assay the levels of reactive oxygen species (ROS), cells were loaded with 40 µM 2',7'- dichlorodihyfluoresceindiacetate (DCFDA; Invitrogen) and 1 µM calcein red-orange (Molecular Probes) immediately after OGD. Calcein was used to quantify the number of cells within the reading field. Fluorescence was measured as above and values were plotted as the percentage of DCFDA/calcein red-orange fluorescence versus control. The changes in mitochondrial membrane potential were monitored with 5,5',6,6'-tetrachloro-1,1',3,3'-tetraethylbenzimidazolcarbocyanine iodide (JC-1; Molecular Probes). Immediately after OGD, cells were loaded with JC-1 (3 µM) at 37°C for 30 min. The changes in the membrane potential were calculated as the red (emission at 590)/green (emission at 520) ratio in each condition and results were normalized to control.

P2X6 = P2X6 (Homo sapiens, UniProt O15547); conditions: read-out: IC50 P2X6; cited from earlier work
Chain of P2X6 (O15547 whole entry, species assumed): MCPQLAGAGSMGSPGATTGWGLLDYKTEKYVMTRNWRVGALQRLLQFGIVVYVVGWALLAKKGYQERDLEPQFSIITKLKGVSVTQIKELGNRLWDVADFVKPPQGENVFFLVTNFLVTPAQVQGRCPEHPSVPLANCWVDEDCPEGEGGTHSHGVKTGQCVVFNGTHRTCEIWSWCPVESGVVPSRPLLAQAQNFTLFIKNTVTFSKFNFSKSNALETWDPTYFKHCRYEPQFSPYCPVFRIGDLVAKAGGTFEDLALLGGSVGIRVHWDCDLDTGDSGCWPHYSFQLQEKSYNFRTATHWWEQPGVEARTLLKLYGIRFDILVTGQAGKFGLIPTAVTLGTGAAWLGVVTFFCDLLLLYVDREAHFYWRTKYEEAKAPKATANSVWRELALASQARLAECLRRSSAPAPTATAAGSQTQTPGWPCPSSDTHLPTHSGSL

[3] = tested on: optic nerve oligodendrocytes; test: Reactive oxygen species (DCFDA) after OGD in oligodendrocyte cultures; type: cell-based, Sprague-Dawley rats; conditions: 1 h OGD; BBG 50 nM, PPADS 100 µM
Method: as §1

[4] = tested on: optic nerve oligodendrocytes; test: Ca2+ imaging (fura-2) of oligodendrocytes during chemical ischaemia; type: cell-based, Sprague-Dawley rats; conditions: chemical ischaemia; PPADS 100 µM, oATP 1 mM
Method: After 2-4 days in vitro, cultures were composed of at least 98% 04/Ga1C^+ cells. No microglial cells were detected in these cultures. […] Cell death was determined 24h later using calcein-AM (Invitrogen) as previously described (Matute et al., 1997 Proc Natl Acad Sci U S A 94:8830-8835.). Antagonists were present during in vitro ischaemia and during the next 24h incubation period. […] Calcein was used to quantify the number of cells within the reading field. Fluorescence was measured as above and values were plotted as the percentage of DCFDA/calcein red-orange fluorescence versus control. […] Molecular Probes). […] The changes in the membrane potential were calculated as the red (emission at 590)/green (emission at 520) ratio in each condition and results were normalized to control. Whole cell recordings were performed at room temperature and at a holding membrane potential of -70 mV. Extracellular bath solution with a pH of 7.3 contained (in mM): […] Patch clamp pipettes (3-5 MΩ) were filled with internal solution at a pH of 7.3 containing (in mM): CsCI 140, CaC12 2, MgC12 2, HEPES 10, EGTA 11, Na-ATP 2. […] Data were analyzed with Excel and Prism software.

[5] = tested on: optic nerve oligodendrocytes; test: Whole-cell recording of ischaemic inward current in cultured oligodendrocytes (chemical ischaemia); type: cell-based, Sprague-Dawley rats
Method: After 2-4 days in vitro, cultures were composed of at least 98% 04/Ga1C^+ cells. No microglial cells were detected in these cultures. […] Cell death was determined 24h later using calcein-AM (Invitrogen) as previously described (Matute et al., 1997 Proc Natl Acad Sci U S A 94:8830-8835.). Antagonists were present during in vitro ischaemia and during the next 24h incubation period. […] Calcein was used to quantify the number of cells within the reading field. Fluorescence was measured as above and values were plotted as the percentage of DCFDA/calcein red-orange fluorescence versus control. […] Molecular Probes). […] The changes in the membrane potential were calculated as the red (emission at 590)/green (emission at 520) ratio in each condition and results were normalized to control. Whole cell recordings were performed at room temperature and at a holding membrane potential of -70 mV. Extracellular bath solution with a pH of 7.3 contained (in mM): […] Patch clamp pipettes (3-5 MΩ) were filled with internal solution at a pH of 7.3 containing (in mM): CsCI 140, CaC12 2, MgC12 2, HEPES 10, EGTA 11, Na-ATP 2. For electrophysiology monitoring, ischaemia was induced chemically by using the glycolytic blocker iodoacetate (1 mM) and the oxidative phosphorylation inhibitor antimycin (2.5 μM), and omitting glucose because recordings were performed in an open chamber where O2 can diffuse to the cells (Káradóttir et al., 2005). Recordings of ATP currents were performed in divalent cation-free extracellular solutions, obtained by omitting Ca^2+ and Mg^2+, to potentiate P2X-mediated responses (Matute et al., 1997 Proc Natl Acad Sci U S A 94:8830-8835.). […] Molecular Probes, Inc., Eugene, OR) in culture medium for 30 min at 37 °C. Experiments were carried out in a coverslip chamber continuously perfused with a buffer containing 20 mM HEPES, 2 mM CaC12, 10 mM glucose in HBSS at 1 ml/min. The perfusion chamber was mounted on the stage of a Zeiss inverted epifluorescence microscope (Axiovert 35), equipped with a 150 W xenon lamp Polychrome IV (TILL Photonics GMBH) and a Plan Neofluar 40x oil immersion objective (Zeiss, Germany). Cells were visualized with a high resolution digital B/W CCD camera (ORCA; Hamamatsu Photonics Iberica, Barcelona, Spain) and image acquisition and data analysis were carried out using the AquaCosmos software program (Hamamatsu Photonics Iberica). Images were acquired every 30 ms at 37°C and ischaemia was induced as above. […] At the end of the assay, in situ calibration was carried out with the successive addition of […] and 2M Tris/50 mM EGTA, pH 8.5. Data were analyzed with Excel and Prism software.

[6] = tested on: AMPA and kainate receptors; test: Glutamate receptor agonist (AMPA, kainate) induced oligodendrocyte death (calcein fluorescence); type: cell-based, Sprague-Dawley rats; conditions: AMPA (100 µM) + cyclothiazide (100 µM), or kainate (3 mM) + GYKI 53655 (50 µM); PPADS 100 µM, BBG 50 nM
Method: as §1

P2X1 = molecular target: T1, P2X1 (Homo sapiens, UniProt P51575); conditions: read-out: IC50 P2X1; cited from earlier work
T1 sequence (P51575 1-399): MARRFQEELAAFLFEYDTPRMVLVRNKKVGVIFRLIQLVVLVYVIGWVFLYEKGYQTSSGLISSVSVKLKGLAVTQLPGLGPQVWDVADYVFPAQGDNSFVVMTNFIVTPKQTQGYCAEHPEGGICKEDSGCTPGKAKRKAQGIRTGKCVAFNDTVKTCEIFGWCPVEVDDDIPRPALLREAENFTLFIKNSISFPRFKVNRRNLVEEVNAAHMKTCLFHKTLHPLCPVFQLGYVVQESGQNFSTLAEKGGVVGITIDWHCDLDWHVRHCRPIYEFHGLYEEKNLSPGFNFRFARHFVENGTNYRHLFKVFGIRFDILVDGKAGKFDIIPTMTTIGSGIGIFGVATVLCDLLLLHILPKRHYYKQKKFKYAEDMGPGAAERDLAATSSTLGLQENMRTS

optic nerves = test: Optic nerve ischaemia (OGD), tissue damage by LDH release; set-up: species or system rats; conditions: P28 rat optic nerves, 1h OGD + 2h reperfusion; PPADS 1 mM, BBG 50 nM, oATP 1 mM, apyrase 20 U/ml, MFQ 1 µM, CBX 100 µM, FFA 1 mM
Method: (§3) After 1h OGD at 37°C, the medium was replaced with fresh solution containing glucose and equilibrated with 95% O2, 5% CO2 and the nerves were incubated for another 2h at 37°C to simulate reperfusion.

[7] = tested on: cultured optic nerve oligodendrocytes; test: ATP release measurement (luciferin/luciferase) in oligodendrocyte cultures after OGD; type: cell-based, Sprague-Dawley rats; conditions: 1h OGD in the presence of ARL67156; CBX 20 µM, FFA 100 µM, MFQ 1 nM (figure legend)
Method: as §2
(§4) ATP levels were measured using a Luciferin/Luciferase assay kit (Invitrogen) after 1h normoxia or OGD in oligodendrocyte cultures and in isolated optic nerves according to the manufacturer's instructions. The luminescence was measured with a luminometer Synergy-HT (BioTek) with an integration time of 3 sec. Because ATP was measured in the culture medium and in the solution bathing optic nerves, the concentration of ATP at the extracellular surface, near the vicinity of the receptor was underestimated (Joseph et al., 2003. J Biol Chem 278:23331-23342). The limit of ATP detection was 1 nM and luminescence was linear with increasing ATP concentrations to 1000 nM. The total amount of ATP was calculated according to standard curves and ATP release was expressed in percentage vs control.

[8] = molecular target: T2, P2X7 receptors in oligodendrocytes (Rattus norvegicus, UniProt Q64663); test: ATP-evoked inward currents in whole-cell clamped oligodendrocytes; type: cell-based, Sprague-Dawley rats; conditions: -70 mV; CBX 20 µM, MFQ 1 nM
T2 construct: ATP (1 mM)-evoked inward currents in whole-cell clamped oligodendrocytes at -70 mV; endogenous in cells; host or cells: primary rat optic nerve oligodendrocytes
T2 sequence (Q64663 1-595): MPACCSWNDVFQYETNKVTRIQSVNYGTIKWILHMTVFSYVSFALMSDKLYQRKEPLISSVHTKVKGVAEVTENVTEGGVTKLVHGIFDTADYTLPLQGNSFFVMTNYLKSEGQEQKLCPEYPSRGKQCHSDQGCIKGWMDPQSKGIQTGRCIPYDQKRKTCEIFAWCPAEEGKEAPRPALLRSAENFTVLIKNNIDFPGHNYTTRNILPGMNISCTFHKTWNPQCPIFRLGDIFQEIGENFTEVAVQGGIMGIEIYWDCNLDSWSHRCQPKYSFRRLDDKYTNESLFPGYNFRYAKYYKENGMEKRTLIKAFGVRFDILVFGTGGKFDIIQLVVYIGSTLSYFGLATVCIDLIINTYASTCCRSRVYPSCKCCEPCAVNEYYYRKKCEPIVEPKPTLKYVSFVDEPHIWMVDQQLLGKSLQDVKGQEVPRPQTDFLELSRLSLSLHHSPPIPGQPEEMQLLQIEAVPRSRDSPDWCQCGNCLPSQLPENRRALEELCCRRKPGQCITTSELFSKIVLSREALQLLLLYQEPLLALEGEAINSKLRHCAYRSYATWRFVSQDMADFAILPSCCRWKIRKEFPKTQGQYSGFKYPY
Method: as §1, with “94:8830-8835.).” for “94:8830-8835.). Antagonists were present during in vitro ischaemia and during the next 24h incubation period.”
Whole cell recordings were performed at room temperature and at a holding membrane potential of -70 mV. […] Data were analyzed with Excel and Prism software.

optic nerve = test: ATP release measurement (luciferin/luciferase) in isolated optic nerves after OGD; set-up: species or system rats; conditions: MFQ 1 µM, CBX 100 µM
Method: as §4, §3

| Structure (SMILES) | mitochondrial depolarization [1] | OGD-induced oligodendrocyte cell death [2] | IC50 (P2X6) [µM] | generation of radical oxygen species (ROS) [3] | increase in [Ca2+]i caused by ischaemia [4] | OGD currents after drug application versus OGD currents before drug application ([5]; after washing the antagonists out, average over BBG and PPADS, n= 15) [%] | ischaemic inward currents ([5]; chemical ischaemia (iodoacetate, antimycin, no glucose), -70 mV, PPADS 100 µM, oATP 1 mM, BBG 50 nM) | glutamate receptor-induced oligodendrocyte death [6] | IC50 (P2X1) [nM] | ischaemia-induced damage to optic nerves (LDH release) (optic nerves) | ATP levels after OGD [7] | ATP (1 mM)-evoked inward currents [8] | ATP levels during OGD (optic nerve) |
| --- | --- | --- | --- | --- | --- | --- | --- | --- | --- | --- | --- | --- | --- |
| Cc1nc(N=Nc2ccc(S(=O)(=O)O)cc2S(=O)(=O)O)c(COP(=O)(O)O)c(C=O)c1O [PPADS, tetrasodium salt of pyridoxalphosphate-6-azophenyl-2',4'-disulfonic acid] | prevented | significantly reduced | > 100 | prevented | significantly blocked; also recorded: significantly reduced | 134 ± 32 | significantly reduced | did not significantly inhibit | 1000 to 5000 | prevented; also recorded: reduced | – | – | – |
| OC(c1cc(C(F)(F)F)nc2c(C(F)(F)F)cccc12)C1CCCCN1 [MFQ, [8-bis(trifluoromethyl)quinolin-4-yl]-[(2R)-piperidin-2-yl]methanol] | – | inhibited | – | – | – | – | – | – | – | reduced; also recorded: attenuated | significantly reduced | not reduced | reduced |
